# Assay: Pharmacokinetic study of Hou in rats after single administration of HEO (LC-MS/MS, non-compartmental model)
# Assay type: in vivo, rat
# Details: for AUC(0–t) / AUC(0–∞) / C max / T 1/2 / T max / V z: Hou in rat plasma after single administration of HEO; for AUC(0–t) / AUC(0–∞) / C max / T 1/2 / T max / V z / MRT(0–t): n = 6; for MRT(0–t): Hou in rat plasma after HEO
# Procedure: The pharmacokinetics of HEO administrated to rat via gavage and injection were evaluated based on the determination of Hou blood concentration by the established LC-MS/MS approach. Furthermore, the parameters of the pharmacokinetics were calculated by a non-compartmental model using the Drug and Statistics Software (DAS), version 3.2.8.
# Twelve male SD rats (200 ± 30 g) were kept in an appropriate environment for three days before the start of the experiment. Before drug administration, the rats were fasted except for free water access for 12 h. All animals were randomly divided into two groups with six animals in each group. Blood samples (0.2 mL) were withdrawn at specific time intervals (0 h, 5 min, 10 min, 15 min, 30 min, 1 h, 2 h, 3 h, 4 h, 6 h, 8 h, 12 h, and 24 h) after administration in heparinized tubes. The samples were immediately centrifuged at 3000 rpm, and kept at −20 °C in a refrigerator.
# Plasma samples (100 μL) were mixed with 100 μL of DNPH (2 mg/mL), 50 μL of IS (PTD, 200 µg/mL), and 150 μL acetonitrile (containing 2% HCl) with uniform mixing, followed by vigorous vortexing for 3 min to precipitate the protein. Then, all samples were shaken in a water bath oscillator for 15 min at 45 °C. The solutions were then centrifuged. The centrifugation step was repeated once, and plasma samples of Hou were obtained and subjected to LC-MS/MS analysis.
# Pharmacokinetic parameters including AUC (0–t), AUC (0–∞), MRT (0–t), MRT (0–∞), CLz and so on, were calculated using the DAS (version 3.2.8, Chinese Pharmacological Association, Beijing, China). The Cmax was obtained from the concentration–time curve. The area under the plasma concentration–time curve from zero to the time of the last measurable sample AUC (0–t)), area under the plasma concentration–time curve from zero to infinity AUC (0−∞), mean residence time from zero to the time of the last measurable sample (MRT0−t), mean residence time from zero to the time of infinity (MRT0−∞), and CLz were calculated using the DAS.
substance,measurement,setting,value
3-oxo-dodecanal [Hou],F (absolute bioavailability),"Hou after HEO, gavage (oral administration)",7.08%
same,F,"Hou after HEO, injection (reference route)",100%
same,AUC(0–t),gavage,2451.79 ± 300.01 µg·h/L
same,AUC(0–∞),gavage,2451.837 ± 432.74 µg·h/L
same,C max,gavage,222.48 ± 20.38 ng/mL
same,T 1/2,gavage,6.45 ± 0.94 h
same,T max,gavage,3.71 ± 1.07 h
same,V z,gavage,85.81 ± 5.74 L/kg
same,AUC(0–t),injection,"32,693.2 ± 1320 μg/L × h"
same,AUC(0–∞),injection,"34,630.466 ± 1436 μg/L × h"
same,C max,injection,2010 ± 350 ng/mL
same,T 1/2,injection,5.987 ± 0.52 h
same,T max,injection,0.033 ± 0.012 h
same,V z,injection,5.611 ± 0.97 L/kg
same,maximum plasma concentration (Cmax),"Hou in rats after HEO, oral administration",222.48 ng/mL
same,MRT(0–t),"first MRT line (r8), gavage",8.914 ± 2.73 h
same,MRT(0–t),"first MRT line (r8), injection",7.575 ± 1.21 h
same,MRT(0–t),"second MRT line (r9), gavage",11.594 ± 1.85 h
same,MRT(0–t),"second MRT line (r9), injection",9.153 ± 0.98 h

# — publication PMC8073230, “Development and Verification of a Precolumn Derivatization LC-MS/MS Method for the Pharmacokinetic Study of Houttuynine of Houttuynia Essential Oil” (Molecules, 2021)
